According to US20250114313A1, “OLIGO-BENZAMIDE ANALOGS AND THEIR USE IN CANCER TREATMENT” (BOARD OF REGENTS, THE UNIVERSITY OF TEXAS SYSTEM, priority 2022, published 2025):

Key:
[1] = system: ERα-positive cell lines; test: CellTiter-Glo assay, ERα-positive cell lines; type: cell-based; details: Homo sapiens, read-out: anti-proliferative IC50, CellTiter-Glo
Method: (§1) Cell viability assays: Cells were seeded in 96-well plates (2×10^3 cells/well) one day before the treatment. Cells were treated with varying concentrations of ERX-41 or ERX-11 analogs for 3-6 days. Then effects of ERX-41 or ERX-11 analogs on cell viability were measured in triplicate or sextuplicate with multiple biological replicates using the WST-1 (Promega), MTT as previously described^33 or CellTiter-Glo 2.0 (Promega) assays.

[2] = system: HSPA5, DDIT3, sXBP1 mRNA in HMEC cells; test: RT-qPCR of ER stress / UPR genes, HMEC; type: cell-based, human; details: 1 μM
[3] = system: D2A1 xenografts; test: D2A1 syngeneic tumor model; type: in vivo, BALB/c mice; details: 10 mg/kg daily
Method: (§2) Animal Studies: All animal experiments were performed using UTHSA and UTSW IACUC approved protocols. For cell based xenograft tumor assays, TNBC cells (2×10^5-2×10^6) were mixed with an equal volume of matrigel and implanted in the mammary fat pads of 6-week-old female athymic nude mice as described^33. BALB/c mice were used for D2A1 syngeneic model. Once tumors reached measurable size, mice were divided into control (vehicle) and ERX-41 (10 mg/kg/oral) treatment groups. Mice bearing TNBC PDX tumors were purchased from Jackson laboratory (TM00089; TM00096; TM00098). TNBC PDX line UTPDX0001 establishment was earlier described^38. WHIM-20 ER+PDX model was purchased from Horizon Labs. OCa-PDX-38 was received from UTHSA ObGyn tissue procurement core. When tumors reached ˜750 mm^3 they were dissected into 2 mm^3 pieces and implanted into the mammary fat pads of 6 weeks old female SCID or NSG mice. When the tumor volume reached ˜200 mm^3, mice were randomized for treatment. The mice were monitored daily for adverse toxic effects and tumor volume was measured every 3-4 days using calipers. For establishing ES2 tumors, ES2/GFP/LUC cells were injected i.p. and tumors were measured twice a week using Xenogen in vivo imaging system. […] The mice were monitored daily for adverse toxic effects. […] The sections were scored by two independent evaluators blinded to the patient's clinical status.

[4] = system: ERα+ breast, glioblastoma, pancreatic and ovarian cancer cell lines; test: CTG dose response in other cancer cell lines; type: cell-based
Method: as §1

[5] = system: LAL; test: Biotinylated compound pull down of LAL from SUM-159 lysates; type: binding, Human
Method: The lysate was incubated with biotinylated-ERX-11 or biotinylated-ERX-41 overnight, followed by one-hour incubation with M-270 streptavidin Dynabeads. After four times of washes with lysis buffer, samples were eluted by boiling in 2× Laemmli sample buffer. Bound proteins were resolved in SDS-PAGE followed by western blotting.

[6] = target: T1, ER Alpha-LBD (GST) (Homo sapiens, UniProt P03372); test: LanthaScreen TR-FRET ER alpha Coactivator Assay, antagonist mode; type: binding; details: 2 h incubation
T1 construct: 3.5 nM ER Alpha-LBD (GST); purchased life technologies A15885
T1 sequence (P03372 311-547 limits assumed): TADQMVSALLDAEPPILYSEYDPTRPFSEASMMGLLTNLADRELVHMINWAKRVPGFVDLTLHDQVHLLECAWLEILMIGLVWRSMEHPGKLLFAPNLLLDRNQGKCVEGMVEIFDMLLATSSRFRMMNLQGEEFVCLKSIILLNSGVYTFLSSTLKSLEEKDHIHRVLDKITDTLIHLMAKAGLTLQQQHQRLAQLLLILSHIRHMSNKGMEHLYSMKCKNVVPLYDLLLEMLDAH

[7] = target: T2, lysosomal acid lipase (LAL) protein (Homo sapiens, UniProt P38571); test: Cellular thermal shift assay, LAL; type: binding; details: 10 μM, SUM-159 cells
T2 construct: heat stability of LAL or vinculin protein in SUM-159 cells; endogenous in cells; host or cells: SUM-159
Method: (§3) Cellular Thermal Shift Assay (CETSA): Cellular Thermal Shift Assays were performed as described previously^36. Briefly, cells were treated with DMSO or 10 μM ERX-41 for 30 min, then trypsinized, pelleted and resuspended in PBS supplemented with Halt protease inhibitor cocktail (Thermo Scientific), with DMSO or 10 μM ERX-41. Resuspended cells were aliquoted into PCR strips. The cells were incubated in thermal cycler (Bio-rad) at gradient temperatures for 3 minutes, followed by incubation at 25° C. for 3 minutes. Then cells were snap-frozen in liquid nitrogen. Freeze-thaw the cells twice using liquid nitrogen. Then transfer samples into Eppendorf tubes, followed by briefly vortex and centrifuge at 20,000 g for 20 minutes at 4° C. Mix cleared cell lysates with ⅓ volume of 4× Laemmli sample buffer. After boiling, cell lysates were resolved in SDS-PAGE followed by western blotting.

[8] = system: ERα-positive cell lines; test: WST assay, ERα-positive cell lines; type: cell-based; details: Homo sapiens, read-out: anti-proliferative IC50, WST
Method: as §1

[9] = system: p-PERK, IRE1α, eIF2α, CHOP in TNBC cells; test: Western blotting of UPR proteins, TNBC cells; type: cell-based, Human; details: 1 μM
Method: Western blotting: Whole cell lysates from breast cancer cells were prepared with 2× sample buffer (60 mM Tris-HCl, pH 6.8, 2% sodium dodecyl sulfate, 10% glycerol), and before loading mixed with loading buffer (5% 2-mercaptoethanol, 0.1% bromophenol blue) and boiled for denaturation, as previously described.^33 Proteins were separated by SDS-PAGE and subjected to Western analysis using antibodies. To detect nascent translated proteins, puromycin (final concentration 10 μg/mL) was added into cell plates 30 minutes before harvesting cells. Then samples were subjected to the Western blotting. Nascent proteins were detected by anti-puromycin antibody.

[10] = Tolerability of daily dosing in mice (pilot MTD); type: in vivo; details: daily oral or intraperitoneal, up to 100 mg/kg
Method: as §2

[11] = target: T3, vinculin (Homo sapiens, UniProt P18206); test: Cellular thermal shift assay, vinculin; type: binding; details: 10 μM, SUM-159 cells
T3 construct: heat stability of LAL or vinculin protein in SUM-159 cells; endogenous in cells; host or cells: SUM-159
Method: as §3

T3 sequence (P18206 1-1066 isoform P18206-2): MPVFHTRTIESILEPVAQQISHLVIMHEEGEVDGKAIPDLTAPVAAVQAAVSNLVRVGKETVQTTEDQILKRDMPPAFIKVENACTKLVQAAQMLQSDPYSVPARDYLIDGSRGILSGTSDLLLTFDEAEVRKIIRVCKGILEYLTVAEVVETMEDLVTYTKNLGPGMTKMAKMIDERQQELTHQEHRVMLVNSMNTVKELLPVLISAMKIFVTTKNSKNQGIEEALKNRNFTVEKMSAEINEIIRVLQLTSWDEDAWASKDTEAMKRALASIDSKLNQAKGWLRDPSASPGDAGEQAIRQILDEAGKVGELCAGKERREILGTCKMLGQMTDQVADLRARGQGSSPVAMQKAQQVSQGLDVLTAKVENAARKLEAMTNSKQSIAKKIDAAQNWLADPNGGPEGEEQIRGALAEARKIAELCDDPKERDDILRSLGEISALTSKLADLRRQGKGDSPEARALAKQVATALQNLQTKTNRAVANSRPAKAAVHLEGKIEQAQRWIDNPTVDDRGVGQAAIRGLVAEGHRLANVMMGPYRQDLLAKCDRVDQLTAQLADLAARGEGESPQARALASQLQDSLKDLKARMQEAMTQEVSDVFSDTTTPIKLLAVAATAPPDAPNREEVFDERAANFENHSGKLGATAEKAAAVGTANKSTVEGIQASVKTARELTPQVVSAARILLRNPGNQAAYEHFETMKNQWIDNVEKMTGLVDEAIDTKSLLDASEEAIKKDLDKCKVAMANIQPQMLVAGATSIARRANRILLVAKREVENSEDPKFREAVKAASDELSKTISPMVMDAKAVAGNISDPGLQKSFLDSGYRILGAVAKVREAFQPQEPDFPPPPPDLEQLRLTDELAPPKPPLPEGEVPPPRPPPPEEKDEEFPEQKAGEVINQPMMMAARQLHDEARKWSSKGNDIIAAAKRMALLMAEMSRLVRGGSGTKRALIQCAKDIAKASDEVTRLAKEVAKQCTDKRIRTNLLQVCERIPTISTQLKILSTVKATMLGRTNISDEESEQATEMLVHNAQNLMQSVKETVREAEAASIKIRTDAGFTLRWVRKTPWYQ
T2 sequence (P38571 77-399): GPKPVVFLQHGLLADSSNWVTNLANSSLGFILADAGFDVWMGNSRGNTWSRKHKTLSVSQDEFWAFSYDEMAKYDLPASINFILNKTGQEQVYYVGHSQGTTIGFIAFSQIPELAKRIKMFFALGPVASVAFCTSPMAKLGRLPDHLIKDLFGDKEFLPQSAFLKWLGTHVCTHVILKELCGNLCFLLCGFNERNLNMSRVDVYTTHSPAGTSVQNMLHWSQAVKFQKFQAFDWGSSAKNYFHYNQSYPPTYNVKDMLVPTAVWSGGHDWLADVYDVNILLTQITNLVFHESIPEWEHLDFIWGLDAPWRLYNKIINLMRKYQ

For `CC(C)COc1cc(C(=O)Nc2ccc(C(=O)N[C@H]3CC[C@H](C)CC3)cc2OCC(C)C)ccc1NC(=O)c1ccc([N+](=O)[O-])c(OCCO)c1` [ERX-41], the IC50 [1] was 100 to 125 nM, the “upregulation of HSPA5, DDIT3, sXBP1 mRNA in HMEC” value [2] was “not in HMEC cells” and the “growth of D2A1 xenografts” value [3] was “significantly reduce the growth”. For the same molecule, the “responsiveness of other cancer cell lines in vitro” value [4] was “responsiveness to ERX-41 in vitro”, the “pulldown of LIPA constructs” value ([5]; biotinylated ERX-41, WT, H274Y, ΔLXXLL, L242P) was “interaction between ERX-41 and proteins encoded by WT-LIPA and H274Y MT-LIPA but not ΔLXXLL MT-LIPA or L242P MT-LIPA” and the “binding to LAL in TNBC cells” value ([5]; biotinylated compound, streptavidin pull down) was “binds to LAL”. The “interaction with ERα LBD” value [6] was “does not interact with ERG LBD”, the “thermal stability of LAL” value [7] was “stabilize the thermal stability of LAL” and the IC50 [8] was 50 to 1000 nM. For the same molecule, the “induction of ER stress / UPR proteins” value ([9]; p-PERK, IRE1α, eIF2α, CHOP) was “induces ER stress and downstream UPR pathways”, the “PERK activation and peIF2α, parental SUM-159” value ([9]; western) was “activates PERK” and the tolerability [10] was “well tolerated by mice, with no clear evidence of toxicity”. For the same molecule, the “thermal stability of vinculin” value [11] was “did not affect vinculin thermal stability”.
